Patent publication US8372979B2, “Process for the production of high-purity 2,4′-dimethyl-3-piperidino-propiophenone (tolperisone), pharmaceutical compositions that contain the latter, as well as active ingredient formulations that contain tolperisone” (SANOCHEMIA Pharmazeutika AG, priority 2007, dated 2013)
Entries after “also recorded” stand apart in the source; their conditions may differ.

Assays:
[1] = preclinical in vitro tests (genotoxicity); conditions: classification also based on chemical structure
[2] = storage stability of tolperisone end product (4-MMPPO formation, HPLC-MS/MS); type: physicochemical
Description: Prior art according to AT PS 413 539: The tolperisone crude product is dissolved under reflux for 30 minutes in an 85:15 mixture that consists of 2-butanone (MEK) and isopropanol. The temperature is lowered to 80° C., and the solution is hot-filtered. The solution is allowed to cool to 5° C., and it is stirred for 7 hours. The crystalline precipitate that is obtained is filtered off, washed with 2-butanone, and then dried in a vacuum at 45-85° C.
A proportion of 500 ppm of 4-MMPPO is detected by analysis using HPLC-MS/MS.
The tolperisone crude product is dissolved under reflux for 12 hours in an 85:15 mixture that consists of 2-butanone (MEK) and isopropanol and with the addition of 1% HCl and 5% citric acid. The temperature is lowered to 80° C., and the solution is hot-filtered. The solution is allowed to cool to 5° C., and it is stirred for 7 hours at 5° C. The crystalline precipitate is filtered off, washed with MEK, and then dried in a vacuum at 45° to 85° C.
By analysis using HPLC-MS/MS, a proportion of 4-MMPPO in a range of 0 ppm (not detectable) to 10 ppm is determined.

| Structure (SMILES) | genotoxic or carcinogenic actions [1] | stabilizing effect of citric acid present in end product ([2]; Variant IIIa: recrystallization in MEK/IPA + 1% HCl + 5% citric acid) | 4-MMPPO values with extended storage ([2]; end product of prior-art process AT 413 539 (recrystallization MEK/IPA, no acid)) |
| --- | --- | --- | --- |
| C=C(C)C(=O)c1ccc(C)cc1 [4-MMPPO, 2-methyl-1-(4-methylphenyl)-propenone] | genotoxic or carcinogenic actions have been detected; also recorded: potentially genotoxic | – | – |
| Cc1ccc(C(=O)C(C)CN2CCCCC2)cc1 (stereo not drawn) [tolperisone, 2,4′-dimethyl-3-piperidino-propiophenone] | – | a stabilizing effect could be detected | additional increasing 4-MMPPO values |
